In patent publication US20070010671A1, “Novel quinazoline derivatives and methods of treatment related to the use thereof” (priority 2003, published 2007) one finds class and IC50 data, which are given here for 13 compounds.

One experiment addresses MCH receptor (Homo sapiens, UniProt Q99705). As to the kind of experiment: High throughput functional screening FLIPR/FDSS6000: inhibition of MCH-evoked intracellular Ca2+ changes. It is filed as cell-based. As to conditions: class by percent of control at 10^-7 M or IC50. An outline of the steps:
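In a kinetic calcium-flux format, compounds were tested at various concentrations against 50 nM MCH. Fluo4-loaded cells expressing a constitutively active, non-endogenous receptor were imaged at 488/530 nm for 290 s after agonist addition.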
On to `Cc1cccc(C(C)C)c1NC(=S)N[C@H]1CC[C@@H](Nc2nc(N(C)C)c3ccccc3n2)CC1` [compound 366, N-(cis-4-{[4-(dimethylamino)quinazolin-2-yl]amino}cyclohexyl)-N′-(2-isopropyl-6-methylphenyl)thiourea], for which the class is reported as 1 (Class 1: The value of percent of control at 10^−7 M was less than 40% or the value of IC50 was less than 50 nM.).

With `CC(NC(=O)NC[C@H]1CC[C@@H](Nc2nc(N(C)C)c3ccccc3n2)CC1)c1ccccc1` (relative stereo) [compound 465, N-[(cis-4-{[4-(dimethylamino)quinazolin-2-yl]amino}cyclohexyl)methyl]-N′-(1-phenylethyl)urea], the class was 2 (Class 2: The value of percent of control at 10^−7 M was from 40% to 60% or the value of IC50 was from 50 nM to 200 nM.).

`CN(C)c1nc(N[C@H]2CC[C@@H](NC(=S)NCc3ccccc3Cl)CC2)nc2ccccc12` [compound 254, N-(2-chlorobenzyl)-N′-(cis-4-{[4-(dimethylamino)quinazolin-2-yl]amino}cyclohexyl)thiourea]: the class is 1 (Class 1: The value of percent of control at 10^−7 M was less than 40% or the value of IC50 was less than 50 nM.).

Consider `CN(C)c1nc(N[C@H]2CC[C@@H](CNC(=S)Nc3ccccc3Br)CC2)nc2ccccc12` [compound 625], for which the class is recorded as 3 (Class 3: The value of percent of control at 10^−7 M was more than 60% or the value of IC50 was more than 200 nM.).

Regarding `CN(C)c1nc(N[C@H]2CC[C@@H](NC(=S)Nc3ccc(Br)cc3F)CC2)nc2ccccc12` [compound 234], the class was 3 (Class 3: The value of percent of control at 10^−7 M was more than 60% or the value of IC50 was more than 200 nM.).

`CN(C)c1nc(N[C@H]2CC[C@@H](CNC(=O)Nc3ccc4c(c3)CCC4)CC2)nc2ccccc12` [compound 568]: the class was 3 (Class 3: The value of percent of control at 10^−7 M was more than 60% or the value of IC50 was more than 200 nM.).

`CN(C)c1nc(N[C@H]2CC[C@@H](CNC(=O)Nc3cccc(Cl)c3Cl)CC2)nc2ccccc12` [compound 425, N-(2,3-dichlorophenyl)-N′-[(cis-4-{[4-(dimethylamino)quinazolin-2-yl]amino}cyclohexyl)methyl]urea]: the class is on record as 1 (Class 1: The value of percent of control at 10^−7 M was less than 40% or the value of IC50 was less than 50 nM.).

As for `COc1ccccc1NC(=O)NC[C@H]1CC[C@@H](Nc2nc(N(C)C)c3ccccc3n2)CC1` [compound 446, N-[(cis-4-{[4-(dimethylamino)quinazolin-2-yl]amino}cyclohexyl)methyl]-N′-(2-methoxyphenyl)urea], the class is reported as 2 (Class 2: The value of percent of control at 10^−7 M was from 40% to 60% or the value of IC50 was from 50 nM to 200 nM.).

The same experiment, now with this note: class by percent of control at 10^-7 M or by IC50; read-out: class.
For the compound `CN(C)c1nc(N[C@H]2CC[C@@H](NC(=S)NC3CCCCC3)CC2)nc2ccccc12` [compound 161, N-cyclohexyl-N′-(cis-4-{[4-(dimethylamino)quinazolin-2-yl]amino}cyclohexyl)thiourea], the IC50 was 0.05 to 0.2 µM.

Turning to `CCc1cccc(NC(=O)N[C@H]2CC[C@@H](Nc3nc(N(C)C)c4ccccc4n3)CC2)c1` [compound 132, N-(cis-4-{[4-(dimethylamino)quinazolin-2-yl]amino}cyclohexyl)-N′-(3-ethylphenyl)urea], the IC50 lay in the range of 0.05 to 0.2 µM.

Take `CN(C)c1nc(N[C@H]2CC[C@@H](NC(=O)NCc3ccc(Br)cc3)CC2)nc2ccccc12` [compound 144, N-(4-bromobenzyl)-N′-(cis-4-{[4-(dimethylamino)quinazolin-2-yl]amino}cyclohexyl)urea]: the IC50 is < 0.05 µM.

Consider `COc1cc(NC(=O)N[C@H]2CC[C@@H](Nc3nc(N(C)C)c4ccccc4n3)CC2)cc(OC)c1` [compound 126], for which the IC50 was in the range of 0.05 to 0.2 µM.

The experiment is the same for the next values; noted with them: class by percent of control at 10^−7 M or by IC50; read-out: class.
As to `CN(C)c1nc(N[C@H]2CC[C@@H](NC(=O)Nc3c(Cl)cccc3Cl)CC2)nc2ccccc12` [Example 1012, N-(2,6-dichlorophenyl)-N′-(cis-4-{[4-(dimethylamino)quinazolin-2-yl]amino}cyclohexyl)urea], the IC50 was > 0.2 µM.
